Data reported in a melting point compilation (Tetko et al.; mined from patent text by program, amines drawn as free bases though some values may be those of a salt).

Row | melting point | SMILES
1 | 250 to 252 °C | Cn1c(CNC(=O)c2ccc3ccccc3c2)nc(-c2ccncn2)cc1=O
2 | 200 °C | COc1cccc(NC(=O)NCC(=O)N(CC(=O)N2CCCC(C)(C)C2)c2ccccc2)c1
3 | 65 to 70 °C | O=C(O)C(Cc1ccccc1)C(=O)NC(CS)Cc1ccccc1 (configuration not stated)
4 | 177 to 178 °C | Cc1c(C=O)c2c(c(C)c1NC(=O)CC(C)(C)C)C(c1ccc(C(C)C)cc1)CO2 (configuration not stated)
5 | 78 to 80 °C | CCOC(=O)[C@H](Cc1ccc(C(F)(F)F)cc1)[C@@H](O)c1ccncc1 (racemic)
6 | 119 to 120 °C | CC[C@H](C)C(=O)c1ccc(-c2ccc(OC)cc2)cc1
7 | 177 to 179 °C | COc1ccc2[nH]c(C(=O)C(C)(C)c3ccc(Cl)cc3)cc2c1
8 | 255 °C | CC12CCC(C(=O)O)=CC1=CCC1C2CCC2(C)C(C(=O)c3ccc(F)cc3)CCC12 (configuration not stated)
9 | 221 to 223 °C | Nc1ccccc1NC(=O)c1ccc(NC(=O)CO)cc1
10 | 61 to 63 °C | COc1ccc([C@H]2CCCN2[S@@](=O)C(C)(C)C)cc1
11 | 175 °C | CC(=O)c1ccc(SC2SCC(O)C(O)C2O)cc1 (configuration not stated)
12 | 82 to 85 °C | O=[N+]([O-])c1cccc(O)c1O
13 | 176 to 178 °C | CCc1nn(C2CCCC2)c2cc(C(=O)Nc3cccc4ncccc34)ccc12
14 | 108 to 111 °C | CCOC(=O)Cc1ccc(NC(=O)C(COC2CCCCO2)NS(=O)(=O)c2ccc(Cl)c([N+](=O)[O-])c2)cc1 (racemic)
15 | 108 to 110 °C | CC(=O)SC(CC(=O)c1ccc(F)cc1)C(=O)O (configuration not stated)
16 | 222 to 224 °C | NC(=O)c1ccc(F)c2c1CC(NCCCc1c[nH]c3c(Cl)cccc13)CO2 (configuration not stated)

Row | melting point | SMILES
17 | 136 °C | Nc1ccc(N2CCN(C(C(=O)NCC(F)(F)F)c3ccccc3)CC2)cc1 (configuration not stated)
18 | 123 to 124 °C | COC(=O)C(NC(=O)c1c(F)cccc1F)c1ccc(Br)s1 (configuration not stated)
19 | 162 to 164 °C | COCCOc1ccc(-c2sc(N)c(C(=O)c3ccc(Cl)cc3)c2CN(C2CCCCC2)C2CCCCC2)cc1
20 | 81 to 83 °C | O=C(O)COCc1ccccc1
21 | 109 to 111 °C | CCCC(C)(CCC)C(=O)O[C@H]1C[C@H](O)C=C2C=C[C@H](C)[C@H](CC[C@@H]3C[C@@H](O)CC(=O)O3)[C@H]21
22 | > 270 °C | CCC(=O)c1[nH]c2cc(Cl)ccc2c1NC(C)=O
23 | 117 to 120 °C | O=C(Cl)C=C(c1ccccc1)c1ccc([N+](=O)[O-])cc1
24 | 276 to 278 °C | CC(=C1SC(=O)NC1=O)c1ccc(OCCOc2c(-c3ccc(F)cc3)n(C)c3cc(F)ccc3c2=O)cc1
25 | 69 to 70.5 °C | CCC(=O)c1ccc2c(c1)OC(c1ccccc1)(c1ccccc1)O2
26 | 132 to 133 °C | O=C(O)CN1CCN(Cc2ccccc2)C1=O
27 | 194 to 196 °C | CN(C)C(=O)c1ccccc1Sc1c[nH]c2ccccc12
28 | 138 to 140 °C | CC(=O)c1cnc2c(c1)oc(=O)n2CCc1ccccn1
29 | 180 to 183 °C | Cc1nc(NC(=O)c2ccccc2)sc1C(=O)NCc1ccccc1F
30 | 86 to 93 °C | [N-]=[N+]=NC1(CO)OC(n2ccc(=O)[nH]c2=O)C(O)C1O (configuration not stated)
31 | 202 °C | CC(=O)Nc1ccc(C)c(C=O)n1

The next lines start with the compound.

Row | SMILES | melting point
32 | Cc1nc2cccc(N)c2c(=O)n1[C@@]1(C)CCC(=O)NC1=O | 295 to 297 °C
33 | CCOC(=O)C1=C(C)NC(=S)N(C(=O)OCC)C1c1ccccc1OC (configuration not stated) | 117 to 118 °C
34 | CN1CCCCC1C(=O)NN=Cc1cc(Cl)cc(Cl)c1O (configuration not stated) | 107 to 110 °C
35 | CC(C)c1ncc2n1-c1ccc(Cl)cc1C(c1ccccc1F)=NC2 | 168 to 169 °C
36 | Nc1cccc(Cn2c(-c3ccc(-c4cccnc4)cc3)ccc2-c2ccccc2Cl)n1 | 139 to 145 °C
37 | COc1cccc(-c2nc(-c3ccccc3)c3ncc(-c4cccnc4)cc3n2)c1 | 134 to 135 °C
38 | COCCOCCOCCOc1ccc(-c2nc(C(=O)Nc3nccs3)c(-c3ccc(Cl)cc3)[nH]2)cc1 | 120 to 122 °C
39 | Cc1c(Cl)cccc1N=Cc1ccccc1Cl | 83 to 85 °C
40 | CCCCNc1c(C(=O)OCC)cnc2cn[nH]c12 | 86 to 95 °C
41 | COc1cccc(Cc2nc3c(N)ncnc3[nH]2)c1 | 163 to 165 °C
42 | CC(C)Nc1ncnc2sc([N+](=O)[O-])cc12 | 200 °C
43 | Nc1cc(Oc2ccc3c(C(=O)Nc4cccc(C(F)(F)F)c4)cccc3c2)ncn1 | 243 to 244 °C
44 | CCCCCCCOc1ccc(-c2ccc(N=Nc3ccc(N=Nc4ccc(N(C)C)cc4)cc3)cc2)cc1 | 201 to 203 °C
45 | CCCCN(CCCC)CCCOc1ccc(S(=O)(=O)c2c(C(C)C)n(C)c3ccccc23)cc1 | 90 °C
46 | CCCc1nc2c(N)nc3cc(OCCCCCCNS(C)(=O)=O)ccc3c2n1CCCCNS(C)(=O)=O | 138 to 140 °C
47 | COc1cc2ncnc(N3CCC(CCNS(C)(=O)=O)CC3)c2cc1OC | 162 to 164 °C
48 | CN(C)S(=O)(=O)n1ccc2cnccc21 | 87 °C
49 | CCOC(=O)c1c(O)c2cc(Cl)ccc2c(=O)n1C | 110 to 111 °C
50 | CCCCCCCCCCCC1=NCCN1 | 82 °C
51 | CCOc1ccc(-c2nc(OC)ccc2N2CCC(c3ccc(OC)cc3)N(C)CC2)cc1 (configuration not stated) | 103 to 107 °C
52 | CCCOc1c(OC)cc(C(=O)CCC(=O)c2cc(OC)c(OC)c(OC)c2)cc1SC | 113 to 114 °C
53 | Cn1c(-c2ccccc2)cc2cc(N)ccc21 | 108 to 110 °C

Row | SMILES | melting point
54 | CCn1c(Oc2cccc(NC=O)c2)nnc1[C@@H](C)NS(=O)(=O)c1ccc(Cl)c(Cl)c1 | 168 to 170 °C
55 | COc1cc(C#N)ccc1-c1nc2cc3c(cc2[nH]1)NC(=O)C3(C)C | 304 to 312 °C
56 | COC(=O)NS(=O)(=O)c1ncccc1C(F)(F)F | 128 to 129 °C
57 | O=c1c(N2CCNCC2)nccn1CCOc1cccc([N+](=O)[O-])c1 | 171 °C
58 | COc1cc(Nc2c(C#N)cnc3cc(-c4csc(CN5CCOCC5)c4)c(OC)cc23)c(Cl)cc1Cl | 148 to 150 °C
59 | COC=C(c1cccnc1)C(C)c1ccc(Cl)cc1Cl (configuration not stated) | 67 to 68 °C
60 | CCCc1c(O)c(C(C)=O)cc(I)c1OCC(O)COc1ccc2c(=O)cc(C(=O)O)oc2c1CCC (configuration not stated) | 173 to 176 °C
61 | Cc1ccn2cc(CCc3ccc4nc(N=CN(C)C)oc4c3)nc2c1 | 150 to 151 °C
62 | O=[N+]([O-])c1cn2c(n1)OC[C@@H](OCc1ccc(Cl)nn1)C2 | 180 to 184 °C
63 | c1ccc(Cc2cccnn2)cc1 | 61 to 64 °C
64 | C=C(OCC1(N2CCN(C(=O)OC(C)(C)C)CC2)Cc2ccccc2C1)c1cc(C)cc(C)c1 | 128 °C
65 | O=S(=O)(CCCl)C(c1ccccc1)S(=O)(=O)CCCl | 106 to 108 °C
66 | Cc1noc(NS(=O)(=O)c2cc(Br)c(Cl)s2)c1Br | 143 to 145 °C
67 | CCCCc1nc2cc(Cl)cc(C(=O)O)c2n1Cc1ccc(-c2ccccc2-c2nnn[nH]2)cc1 | 232 to 234 °C
68 | CC(C)(C)c1ccc(OCCCCCN2CCN(c3nccs3)CC2)cc1 | 71 to 73 °C
69 | O=C(O)Cc1cccc(Oc2cccc(-c3nnc(Nc4ccc(Cl)c(Cl)c4)s3)c2)c1 | 183 to 184 °C
70 | CCn1c(C)c(C2(N(c3ccccc3)c3ccccc3)OCc3cccnc32)c2ccccc21 (configuration not stated) | 132 to 136 °C
71 | CCOP(=O)(Cn1c(=O)c(=O)[nH]c2cc([N+](=O)[O-])ccc21)OCC | 197 °C
72 | O=C(NCc1ccc(Cl)cc1)c1cn2c3c(cc(CN4CCOCC4)cc3c1=O)OC(CN1CCCCC1)C2 (configuration not stated) | 213 to 215 °C
73 | COC(=O)[C@@H]1CCCN1S(=O)(=O)c1ccc(Cl)c(COc2cccc3cc(C(F)(F)F)c(C)nc23)c1Cl | 165 to 167 °C
74 | O=C(O)c1ccc(S(=O)(=O)Oc2c(Br)cc(-c3ccc(-c4c(Cc5ccccc5)sc5ccccc45)cc3)cc2Br)cc1O | 192 to 194 °C
75 | OCCN1CCN(c2onc3c2CCc2ccccc2-3)CC1 | 137 to 138 °C

Row | SMILES | melting point
76 | CSc1nc(O)c(C(N)=O)c(O)n1 | > 360 °C
77 | COC(=O)Cc1cccc(CCC(CO)n2cnc(C(N)=O)c2)c1 (configuration not stated) | 138 to 141 °C
78 | CCOC(=O)Cc1cn(C)c2cc(C3CC3)nn2c1=O | 147 to 150 °C
79 | COC(=O)C1=C(N)NC(C)=C([N+](=O)[O-])C1c1ccccc1S(=O)(=O)CCCCCl (configuration not stated) | 218 °C
80 | OC(c1ccccc1)(c1ccccn1)C1CCN(Cc2ccccc2)CC1 (configuration not stated) | 142 to 143 °C
81 | CCOC(=O)CNc1cc(Cl)nc(Cl)n1 | 89 to 91 °C
82 | CNc1c(NCCSCc2ccc(CN(C)C)o2)c(=O)c1=O | 176 to 178 °C
83 | COc1ccc2c(c1)NCCO2 | 59 to 61 °C
84 | CC1=NCCn2cccc21 | 25 to 27 °C
85 | O=c1c2cnc(-c3ccccc3)nc2sn1Cc1ccccn1 | 154 to 156 °C
86 | COc1ccc(CN2C(=O)C3(COc4cc(O)c(C#N)cc43)c3ccccc32)cc1 (configuration not stated) | 112 to 114 °C
87 | CCN1C(=O)c2cccnc2Sc2ccccc21 | 148 to 149 °C
88 | O=C1C(=O)N(CCN2CCN(C(c3ccccc3)c3ccccc3)CC2)c2ccccc21 | 145 to 148 °C
89 | CC(CCC(O)C(C)(C)O)C1CCC2C3=CC=C4CC(O)CCC4(C)C3CCC21C (configuration not stated) | 216 to 218 °C
90 | CCCN(CCC)Cc1csc(-c2ncn3c2CN(C)C(=O)c2c(Cl)cccc2-3)n1 | 121 to 123 °C
91 | Cc1nc2c(N)nc3ccccc3c2n1OCc1ccccc1[N+](=O)[O-] | 215 to 217 °C
92 | Nc1nc(NCCN2CCCCC2)nc(-c2cc(Cl)ccc2Cl)n1 | 179 to 181 °C
93 | Nc1nc(N)c2cc(S(=O)(=O)c3ccc(Cl)c(Cl)c3)ccc2n1 | 286 to 289 °C
94 | CCc1cc(-c2c3ccccc3cc3oc(C)c(C)c23)cc(CC)c1OS(=O)(=O)c1ccc(C(=O)O)c(O)c1 | 222 to 227 °C
95 | COc1cc2c(cc1Br)-c1c(-c3cccs3)c3c(n1CC2)C(=O)N(C(C)(C)C)CCC3 | 232 to 233 °C
96 | COc1cccc(OC)c1-c1ccc(C[C@H](NC(=O)c2c(Cl)cc(-c3ccc[nH]3)cc2Cl)C(=O)O)cc1 | 250 °C
97 | CC(CO)C1CCC2C3C=CC4=CC(=O)C5OC5C4(C)C3CCC12C (configuration not stated) | 158 to 161 °C
